Assay results published in the SangsterLogP compilation.

Experiment: method code SF-HPLC, from DOI: 10.1016/0378-5173(94)00315-v
Conditions: pH 1.0
For `COc1ccc2cc(CC(=O)O)ccc2c1`, the logD was 2.82.

Same assay, conditions: pH 7.4
In the case of `COc1ccc2cc(CC(=O)OCC(N)=O)ccc2c1`, the logD is reported as 1.88. Compound `CCC(C)NC(=O)COC(=O)Cc1ccc2cc(OC)ccc2c1` (centres undefined) has a logD of 3.31. `COc1ccc2cc(CC(=O)OCC(=O)N(CCO)CCO)ccc2c1` gave a logD of 1.41. In the case of `CCCN(CCC)C(=O)COC(=O)Cc1ccc2cc(OC)ccc2c1`, the logD is reported as 4.04. `CCN(CCO)C(=O)COC(=O)Cc1ccc2cc(OC)ccc2c1` showed a logD of 1.98. `COc1ccc2cc(CC(=O)OCC(=O)N(C)CCO)ccc2c1` gave a logD of 1.58. Work on `CNC(=O)COC(=O)Cc1ccc2cc(OC)ccc2c1` yielded a logD of 2.19. Compound `COc1ccc2cc(CC(=O)OCC(=O)N3CCOCC3)ccc2c1` has a logD of 2.13. Compound `COc1ccc2cc(CC(=O)OCC(=O)NC(C)C)ccc2c1` has a logD of 2.89. In the case of `CCNC(=O)COC(=O)Cc1ccc2cc(OC)ccc2c1`, the logD is reported as 2.65. With `CCCCNC(=O)COC(=O)Cc1ccc2cc(OC)ccc2c1` the logD was 3.57. Work on `CCN(CC)C(=O)COC(=O)Cc1ccc2cc(OC)ccc2c1` yielded a logD of 3.05. Compound `COc1ccc2cc(CC(=O)OCC(=O)NC3CCCCC3)ccc2c1` has a logD of 3.99. `COc1ccc2cc(CC(=O)OCC(=O)N(C)C)ccc2c1` gave a logD of 2.23. `CCCNC(=O)COC(=O)Cc1ccc2cc(OC)ccc2c1` showed a logD of 3.1. `COc1ccc2cc(CC(=O)OCC(=O)N3CCCC3)ccc2c1` gave a logD of 2.71. For `COc1ccc2cc(CC(=O)OCC(=O)NC(C)(C)C)ccc2c1`, the logD was 3.6. With `C=CCN(CC=C)C(=O)COC(=O)Cc1ccc2cc(OC)ccc2c1` the logD was 3.67.
